Laboratory results from patent publication US11117947B2, “Double-acylated GLP-1 derivatives” (Novo Nordisk A/S, priority 2011, dated 2021).
Numbered stars: 1 amine (or outer) side, 2 acyl side, 3 side chain; on linkers, the order of the positions; unused ones are H or OH. Side chains are listed from the residue outwards. Peptide text beside a SMILES is read from it. * marks the point of attachment. Decanoyl(10-(4-HOOC-PhO)) = O=C(O)c1ccc(OCCCCCCCCCC(=O)*)cc1; γGlu = O=C(O)[C@H](CCC(=O)[*:2])N[*:1]; C14 diacid = O=C(O)CCCCCCCCCCCCC(=O)*; AEEA = NCCOCCOCC(=O)O

Assays:
Assay type in all cases: in vivo
[1] = Pharmacokinetics in rat: half-life after i.v. administration; details: plasma, iv, 6 nmol/kg, male Sprague Dawley rats, approximately 4 rats per group, read-out: t½/h (half-life in rat) (converted)
Description: In vivo pharmacokinetic studies in rats were performed with the GLP-1 derivatives of Examples 2, 10, 17-18, and 31, as described in the following. Semaglutide was included for comparison.
Male Sprague Dawley rats of same age with a body weight of approximately 400 g were obtained from Taconic (Denmark) and assigned to the treatments by simple randomisation on body weight, approximately 4 rats per group, so that all animals in each group were of similar body weight.
The GLP-1 derivatives (approximately 6 nmol/ml) were dissolved in 50 mM sodium phosphate, 145 mM sodium chloride, 0.05% tween 80, pH 7.4. Intravenous injections (1.0 ml/kg) of the compounds were given through a catheter implanted in the right jugular vein. Blood was sampled from vena sublingualis for 5 days post dosing. Blood samples (200 μl) were collected in EDTA buffer (8 mM) and then centrifuged at 4° C. and 10000 G for 5 minutes. Plasma samples were kept at −20° C. until analyzed for plasma concentration of the respective GLP-1 compound.
The plasma concentrations of the GLP-1 compounds were determined using a Luminescence Oxygen Channeling Immunoasssay (LOCI), generally as described for the determination of insulin by Poulsen and Jensen in Journal of Biomolecular Screening 2007, vol. 12, p. 240-247. The donor beads were coated with streptavidin, while acceptor beads were conjugated with a monoclonal antibody recognising a mid-/C-terminal epitope of the peptide. Another monoclonal antibody, specific for the N-terminus, was biotinylated. The three reactants were combined with the analyte and formed a two-sited immuno-complex. Illumination of the complex released singlet oxygen atoms from the donor beads, which were channeled into the acceptor beads and triggered chemiluminescence which was measured in an Envision plate reader. The amount of light was proportional to the concentration of the compound.
Plasma concentration-time profiles were analyzed using Phoenix WinNonLin ver. 6.2, Pharsight Inc., Mountain View, Calif., USA), and the half-life (T1/2) calculated using individual plasma concentration-time profiles from each animal.

[2] = Estimate of oral bioavailability: gut injection in rat (caprate), exposure in plasma; details: injection in jejunum, 1000 uM in 55 mg/ml sodium caprate, plasma concentration (pM) at 30 min divided by dosing solution concentration (μM), mean n=4
How it was run: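 Male Sprague Dawley rats (~240 g, n=4) received 100 μl of 1000 uM derivative in 55 mg/ml sodium caprate by catheter into proximal or mid jejunum. Tail-vein EDTA plasma was sampled up to 240 min. Peptide was quantified by two-antibody bead chemiluminescence immunoassay, giving mean concentration-time profiles (pmol/l).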

[3] = Half-life in minipigs after i.v. administration; details: minipig, plasma, iv, male Göttingen minipigs, read-out: terminal half-life (converted)
Text: By terminal half-life is generally meant the period of time it takes to halve a certain plasma concentration, measured after the initial distribution phase.

| Compound | half-life [1] [h] | Dose-corrected exposure at 30 min [2] | half-life [3] [h] |
| --- | --- | --- | --- |
| CC[C@H](C)[C@H](NC(=O)[C@H](Cc1ccccc1)NC(=O)[C@H](CCCCNC(=O)COCCOCCNC(=O)COCCOCCNC(=O)CC[C@H](NC(=O)CCCCCCCCCOc1ccc(C(=O)O)cc1)C(=O)O)NC(=O)[C@H](CCCNC(=N)N)NC(=O)[C@H](C)NC(=O)[C@H](C)NC(=O)[C@H](CCC(N)=O)NC(=O)[C@H](CCC(=O)O)NC(=O)[C@H](CCC(=O)O)NC(=O)[C@H](CC(C)C)NC(=O)[C@H](Cc1ccc(O)cc1)NC(=O)[C@H](CO)NC(=O)[C@H](CO)NC(=O)[C@@H](NC(=O)[C@H](CC(=O)O)NC(=O)[C@H](CO)NC(=O)[C@@H](NC(=O)[C@H](Cc1ccccc1)NC(=O)[C@@H](NC(=O)CNC(=O)[C@H](CCC(=O)O)NC(=O)[C@H](C)NC(=O)[C@@H](N)Cc1c[nH]cn1)[C@@H](C)O)[C@@H](C)O)C(C)C)C(=O)N[C@@H](CCC(=O)O)C(=O)N[C@@H](Cc1c[nH]c2ccccc12)C(=O)N[C@@H](CC(C)C)C(=O)N[C@H](C(=O)N[C@@H](CCCNC(=N)N)C(=O)NCC(=O)N[C@@H](CCCCNC(=O)COCCOCCNC(=O)COCCOCCNC(=O)CC[C@H](NC(=O)CCCCCCCCCOc1ccc(C(=O)O)cc1)C(=O)O)C(=O)NCC(=O)N[C@@H](CCC(=O)O)C(=O)NCC(=O)O)C(C)C [Example 2, N^ε27-[2-[2-[2-[[2-[2-[2-[[(4S)-4-carboxy-4-[10-(4-carboxyphenoxy)decanoylamino]butanoyl]amino]ethoxy]ethoxy]acetyl]amino]ethoxy]ethoxy]acetyl], N^ε36-[2-[2-[2-[[2-[2-[2-[[(4S)-4-carboxy-4-[10-(4-carboxyphenoxy)decanoylamino]butanoyl]amino]ethoxy]ethoxy]acetyl]amino]ethoxy]ethoxy]acetyl]-[Glu^22,Arg^26,Lys^27,Glu^30,Arg^34,Lys^36]-GLP-1-(7-37)-peptidyl-Glu-Gly] (H-HAEGTFTSDVSSYLEEQAARK([AEEA-AEEA-γGlu-Decanoyl(10-(4-HOOC-PhO))])FIEWLVRGK([AEEA-AEEA-γGlu-Decanoyl(10-(4-HOOC-PhO))])GEG-OH; N-terminus and C-terminus assumed) | 26 | 98 | 87 |
| CC[C@H](C)[C@H](NC(=O)[C@H](Cc1ccccc1)NC(=O)[C@H](CCCCNC(=O)COCCOCCNC(=O)COCCOCCNC(=O)CC[C@H](NC(=O)CCCCCCCCCCCCC(=O)O)C(=O)O)NC(=O)[C@H](CCCNC(=N)N)NC(=O)[C@@H](NC(=O)[C@H](C)NC(=O)[C@H](CCC(=O)O)NC(=O)[C@H](CCC(=O)O)NC(=O)[C@H](CCC(=O)O)NC(=O)[C@H](CC(C)C)NC(=O)[C@H](Cc1ccc(O)cc1)NC(=O)[C@H](CO)NC(=O)[C@H](CO)NC(=O)[C@@H](NC(=O)[C@H](CC(=O)O)NC(=O)[C@H](CO)NC(=O)[C@@H](NC(=O)[C@H](Cc1ccccc1)NC(=O)[C@@H](NC(=O)CNC(=O)[C@H](CCC(=O)O)NC(=O)[C@H](C)NC(=O)[C@@H](N)Cc1c[nH]cn1)[C@@H](C)O)[C@@H](C)O)C(C)C)C(C)C)C(=O)N[C@@H](C)C(=O)N[C@@H](Cc1c[nH]cn1)C(=O)N[C@@H](CC(C)C)C(=O)N[C@H](C(=O)N[C@@H](CCC(N)=O)C(=O)NCC(=O)N[C@@H](CCCNC(=N)N)C(=O)N[C@@H](CCCCNC(=O)COCCOCCNC(=O)COCCOCCNC(=O)CC[C@H](NC(=O)CCCCCCCCCCCCC(=O)O)C(=O)O)C(=O)O)C(C)C [Example 17, N^ε27-[2-[2-[2-[[2-[2-[2-[[(4S)-4-carboxy-4-(13-carboxytridecanoylamino)butanoyl]amino]ethoxy]ethoxy]acetyl]amino]ethoxy]ethoxy]acetyl], N^ε37-[2-[2-[2-[[2-[2-[2-[[(4S)-4-carboxy-4-(13-carboxytridecanoylamino)butanoyl]amino]ethoxy]ethoxy]acetyl]amino]ethoxy]ethoxy]acetyl]-[Glu^22,Glu^23,Val^25,Arg^26,Lys^27,His^31,Gln^34,Lys^37]-GLP-1-(7-37)-peptide] (H-HAEGTFTSDVSSYLEEEAVRK([AEEA-AEEA-γGlu-C14 diacid])FIAHLVQGRK([AEEA-AEEA-γGlu-C14 diacid])-OH; N-terminus and C-terminus assumed) | 10 | 168 | – |
| CC[C@H](C)[C@H](NC(=O)[C@H](Cc1ccccc1)NC(=O)[C@H](CCCCNC(=O)COCCOCCNC(=O)COCCOCCNC(=O)CC[C@H](NC(=O)CCCCCCCCCOc1ccc(C(=O)O)cc1)C(=O)O)NC(=O)[C@H](Cc1c[nH]cn1)NC(=O)[C@H](C)NC(=O)[C@H](C)NC(=O)[C@H](CCC(N)=O)NC(=O)CNC(=O)[C@H](CCC(=O)O)NC(=O)[C@H](CC(C)C)NC(=O)[C@H](Cc1ccc(O)cc1)NC(=O)[C@H](CO)NC(=O)[C@H](CO)NC(=O)[C@@H](NC(=O)[C@H](CC(=O)O)NC(=O)[C@H](CO)NC(=O)[C@@H](NC(=O)[C@H](Cc1ccccc1)NC(=O)[C@@H](NC(=O)CNC(=O)[C@H](CCC(=O)O)NC(=O)[C@H](C)NC(=O)[C@@H](N)Cc1c[nH]cn1)[C@@H](C)O)[C@@H](C)O)C(C)C)C(=O)N[C@@H](CCC(=O)O)C(=O)N[C@@H](Cc1c[nH]c2ccccc12)C(=O)N[C@@H](CC(C)C)C(=O)N[C@H](C(=O)N[C@@H](CCCNC(=N)N)C(=O)NCC(=O)N[C@@H](CCCCNC(=O)COCCOCCNC(=O)COCCOCCNC(=O)CC[C@H](NC(=O)CCCCCCCCCOc1ccc(C(=O)O)cc1)C(=O)O)C(=O)NCC(=O)N[C@@H](CCC(=O)O)C(=O)O)C(C)C [Example 10, N^ε27-[2-[2-[2-[[2-[2-[2-[[(4S)-4-carboxy-4-[10-(4-carboxyphenoxy)decanoylamino]butanoyl]amino]ethoxy]ethoxy]acetyl]amino]ethoxy]ethoxy]acetyl], N^ε36-[2-[2-[2-[[2-[2-[2-[[(4S)-4-carboxy-4-[10-(4-carboxyphenoxy)decanoylamino]butanoyl]amino]ethoxy]ethoxy]acetyl]amino]ethoxy]ethoxy]acetyl]-[His^26,Lys^27,Glu^30,Arg^34,Lys^36]-GLP-1-(7-37)-peptidyl-Glu] (H-HAEGTFTSDVSSYLEGQAAHK([AEEA-AEEA-γGlu-Decanoyl(10-(4-HOOC-PhO))])FIEWLVRGK([AEEA-AEEA-γGlu-Decanoyl(10-(4-HOOC-PhO))])GE-OH; N-terminus and C-terminus assumed) | 23 | 187 | – |
